Test results taken from PubChem BioAssay AID248 (DTP/NCI, 2004).
Values joined by “and” are separate entries in the source; they are usually repeats but may differ in a detail not shown here. Equal values may be shown once. Toxic doses and inconclusive results are not listed. Cut-off read from the data, not from the text of the source: active = T/C of 150% or more; inactive = T/C below 125%.

Test system: L1210 leukemia ip in BDF1 mice, survival T/C
Experiment: NCI In Vivo Anticancer Drug Screen. Data for tumor model L1210 Leukemia (intraperitoneal) in B6D2F1 (BDF1) mice
Settings: endpoint: mean survival time, higher = longer survival
Procedure, shortened: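 Mice bearing the transplanted tumor received compound or vehicle. Survival of the treated group was divided by that of the vehicle-treated control group to give the ratio.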

[1] = dose: 100.0 mg/kg/injection, schedule: Q04DX003 (ip), vehicle: Klucel (hydroxypropylcellulose) (HPC)
[2] = dose: 200.0 mg/kg/injection, schedule: Q04DX003 (ip), vehicle: Klucel (hydroxypropylcellulose) (HPC)
[3] = dose: 400.0 mg/kg/injection, schedule: Q04DX003 (ip), vehicle: Klucel (hydroxypropylcellulose) (HPC)
[4] = dose: 100.0 mg/kg/injection, schedule: Q04DX003 (ip), vehicle: saline with Tween-80
[5] = dose: 200.0 mg/kg/injection, schedule: Q04DX003 (ip), vehicle: saline with Tween-80
[6] = dose: 400.0 mg/kg/injection, schedule: Q04DX003 (ip), vehicle: saline with Tween-80
[7] = dose: 100.0 mg/kg/injection, schedule: Q04DX003 (ip), vehicle: saline
[8] = dose: 200.0 mg/kg/injection, schedule: Q04DX003 (ip), vehicle: saline
[9] = dose: 400.0 mg/kg/injection, schedule: Q04DX003 (ip), vehicle: saline
[10] = dose: 100.0 mg/kg/injection, schedule: Q01DX001 (ip), vehicle: saline
[11] = dose: 200.0 mg/kg/injection, schedule: Q01DX001 (ip), vehicle: saline
[12] = dose: 200.0 mg/kg/injection, schedule: Q01DX001 (ip), vehicle: carboxymethylcellulose (CMC)

Measured: T/C

CCOC1(OCC)CCC2(CC1)c1ccccc1-c1ccccc12
inactive: [1] 92 % of control | [2] 93 % of control | [3] 95 % of control

O=C(/C=N/O)Nc1cc(Cl)ccc1Cl
inactive: dose: 100.0 mg/kg/injection, schedule: Q01DX009 (ip), vehicle: saline with Tween-80 91 % of control | [4] 97 % of control | dose: 200.0 mg/kg/injection, schedule: Q01DX009 (ip), vehicle: saline with Tween-80 87 % of control | [5] 93 % of control | dose: 400.0 mg/kg/injection, schedule: Q01DX009 (ip), vehicle: saline with Tween-80 88 % of control | [6] 108 % of control

Cc1c(C(=O)O)c(C)c([N+](=O)[O-])c(C)c1[N+](=O)[O-]
inactive: dose: 50.0 mg/kg/injection, schedule: Q04DX003 (ip), vehicle: saline with Tween-80 95 % of control | [1] 90 % of control | [4] 97 % of control | [2] 95 % of control | [5] 97 % of control | [3] 93 % of control

O=S(=O)(Nc1ccccc1)c1ccccc1C=C(c1ccccc1)c1ccccc1
inactive: dose: 100.0 mg/kg/injection, schedule: Q01DX001 (ip), vehicle: steriod suspending solution 105 % of control | dose: 200.0 mg/kg/injection, schedule: Q01DX001 (ip), vehicle: steriod suspending solution 86 % of control | dose: 400.0 mg/kg/injection, schedule: Q01DX001 (ip), vehicle: steriod suspending solution 97 % of control

O=C(CCC(=O)Oc1ccc(S(=O)(=O)F)cc1)Oc1ccc(S(=O)(=O)F)cc1
inactive: [7] 92 % of control | [8] 118 % of control | [9] 103 % of control

CC(C)(C)c1cccc(C(C)(C)C)c1O
inactive: [7] 102 % of control | [8] 98 % of control | [9] 90 % of control

Nc1ccc(N=Nc2ccccc2)c2cccnc12 (tested in a mixture with another compound)
inactive: dose: 100.0 mg/kg/injection, schedule: Q04DX003 (sc), vehicle: olive oil, sesame oil, peanut oil 100 % of control | dose: 200.0 mg/kg/injection, schedule: Q04DX003 (sc), vehicle: olive oil, sesame oil, peanut oil 100 % of control | dose: 400.0 mg/kg/injection, schedule: Q04DX003 (sc), vehicle: olive oil, sesame oil, peanut oil 117 % of control

[N-]=[N+]=NC(c1ccccc1)C(I)c1ccccc1 (stereo not drawn)
inactive: dose: 50.0 mg/kg/injection, schedule: Q01DX001 (ip), vehicle: saline 103 % of control | [10] 103 % of control | [11] 108 % of control | dose: 400.0 mg/kg/injection, schedule: Q01DX001 (ip), vehicle: saline 97 % of control

OC1(C2(O)CCCC2)CCCC1
inactive: [4] 98 % of control | [5] 98 % of control | [6] 95 % of control

NC(=O)CC(N)C(N)=O (stereo not drawn)
inactive: dose: 100.0 mg/kg/injection, schedule: Q04DX002 (ip), vehicle: saline 98 % of control | dose: 200.0 mg/kg/injection, schedule: Q04DX002 (ip), vehicle: saline 106 % of control | dose: 400.0 mg/kg/injection, schedule: Q04DX002 (ip), vehicle: saline 109 % of control

O=C1OC(/C=C/c2ccccc2)=NC/1=C\c1ccccc1O
inactive: dose: 100.0 mg/kg/injection, schedule: Q04DX002 (ip), vehicle: saline with Tween-80 92 % of control | dose: 200.0 mg/kg/injection, schedule: Q04DX002 (ip), vehicle: saline with Tween-80 92 % of control | dose: 400.0 mg/kg/injection, schedule: Q04DX002 (ip), vehicle: saline with Tween-80 89 % of control

c1ccc(-c2cnsc2)cc1
inactive: [12] 95 % of control | dose: 400.0 mg/kg/injection, schedule: Q01DX001 (ip), vehicle: carboxymethylcellulose (CMC) 100 % of control

COC1=C(NC(C)c2ccccc2)C(=O)C(OC)=C(NC(C)c2ccccc2)C1=O (stereo not drawn)
inactive: dose: 50.0 mg/kg/injection, schedule: Q01DX001 (ip), vehicle: carboxymethylcellulose (CMC) 96 % of control | [12] 89 % of control

CC1CN(c2ccc([N+](=O)[O-])cc2)C(C)CN1 (stereo not drawn)
inactive: dose: 6.25 mg/kg/injection, schedule: Q01DX009 (ip), vehicle: saline 102 % of control | dose: 12.5 mg/kg/injection, schedule: Q01DX009 (ip), vehicle: saline 91 % of control | dose: 25.0 mg/kg/injection, schedule: Q01DX009 (ip), vehicle: saline 102 % of control | dose: 50.0 mg/kg/injection, schedule: Q01DX009 (ip), vehicle: saline 97 % of control and 101 % of control | dose: 100.0 mg/kg/injection, schedule: Q01DX009 (ip), vehicle: saline 88 % of control | [7] 98 % of control | [8] 100 % of control

CN1CCN(C(CO)Cc2ccccc2)CC1 (stereo not drawn)
inactive: [10] 98 % of control | [11] 104 % of control
